Read-outs that look alike come from different tables or passages of the source.
Assays:
[1] = Adverse events in the placebo-controlled study; format: in vivo, human; conditions: among the 34 patients in the study; one withdrew (diarrhea 30 minutes after dosing)
Protocol: A randomized, double blind, placebo-controlled study was performed at Hartford Hospital. People taking dofetilide or sotalol therapy for at least 5 half-lives were eligible for inclusion. […] After enrollment, people who discontinued their sotalol or dofetilide or altered their dosage of these drugs were excluded as well. Thirty-four participants were enrolled in the study. Three were subsequently excluded because the antiarrhythmics they were using were discontinued or the dose of the antiarrhythmics changed during the study. Given the known baseline differences in QTc intervals among men and women, each gender was randomized separately using stratified allocation. […] All of the other baseline intracellular elements evaluated (phosphorus, chloride, calcium, potassium, and sodium) were within the reference range although the phosphorus was at the top of the range (average=16.7±2.8 mEq/IU with reference range of 14.2-17.0 mEq/IU).
Participants received three tablets of magnesium L-lactate (Mag-Tab SR®; Niche Pharmaceuticals; Roanoke, Tex.) or matching placebo twice daily (504 mg of elemental magnesium daily) for 48 hours (i.e. t=0, 12 h, 24 h, 36 h, and 48 h). A 12-lead electrocardiogram (ECG) was recorded at 25 mm/sec at rest prior to initiation of treatment (i.e. baseline) and at 3 and 51 hours after the first dose of magnesium (i.e. t=3 h and t=51 h) for each participant. […]

[2] = test system: people taking dofetilide or sotalol therapy; test: 12-lead electrocardiogram intervals, randomized, double blind, placebo-controlled study of oral magnesium L-lactate; format: in vivo, human; conditions: for QTc Interval 3 Hour / QTc Interval 51 Hour / QTc Baseline: Bazett's formula; for QTc interval reduction: all magnesium-treated patients on sotalol or dofetilide; for QT interval reduction: magnesium therapy
Protocol: (§1) A randomized, double blind, placebo-controlled study was performed at Hartford Hospital. People taking dofetilide or sotalol therapy for at least 5 half-lives were eligible for inclusion. […] After enrollment, people who discontinued their sotalol or dofetilide or altered their dosage of these drugs were excluded as well. Thirty-four participants were enrolled in the study. Three were subsequently excluded because the antiarrhythmics they were using were discontinued or the dose of the antiarrhythmics changed during the study. Given the known baseline differences in QTc intervals among men and women, each gender was randomized separately using stratified allocation. Patients completing the study (n=30) were well matched for baseline characteristics, which are reflected in Table 1. Intracellular concentrations of essential elements were available for 19 subjects. Overall 63.2% of patients (regardless of experimental group) had baseline intracellular magnesium concentrations below the normal reference range of 33.9-41.9 mEq/IU with an average level of 32.6±2.2 mEq/IU. All of the other baseline intracellular elements evaluated (phosphorus, chloride, calcium, potassium, and sodium) were within the reference range although the phosphorus was at the top of the range (average=16.7±2.8 mEq/IU with reference range of 14.2-17.0 mEq/IU).
(§2) Participants received three tablets of magnesium L-lactate (Mag-Tab SR®; Niche Pharmaceuticals; Roanoke, Tex.) or matching placebo twice daily (504 mg of elemental magnesium daily) for 48 hours (i.e. t=0, 12 h, 24 h, 36 h, and 48 h). A 12-lead electrocardiogram (ECG) was recorded at 25 mm/sec at rest prior to initiation of treatment (i.e. baseline) and at 3 and 51 hours after the first dose of magnesium (i.e. t=3 h and t=51 h) for each participant. A single blinded investigator read all ECGs using a precision ruler of 0.5 mm scale (Schlaedler-Quinzel, Inc. Parsippany, N.J.).
QT intervals were measured from the onset of the Q wave (or R/S wave if there was no Q wave) to the end of the T wave where it merges with the isoelectric baseline. The beginning and end of the QRS complex were determined by visual inspection, whereas the end of the T-wave was obtained by extrapolating the descending slope of the T-wave to the isoelectric baseline. When au wave interrupts the down sloping of the T-wave, the visible portion of the T wave was extrapolated to the T-P baseline to define the end of the T-wave. The R-R interval was measured from the peak of one R wave to the peak of an adjacent R wave. The QTc interval was corrected for heart rate using Bazett's formula [QTc=QT/(RR)^1/2].
(§3) Continuous data was expressed by a mean±SD. A p value less than 0.05 was considered statistically significant. The primary analysis was the intergroup comparisons of the change in QTc interval from baseline at 3 hours and 51 hours using Bazett's formula. Evaluations of the QRS, QT, and RR intervals were compared between groups at each time period as well. Mann-Whitney tests were used for all statistical analyses of continuous ECG data. Intracellular element intragroup comparisons were performed with a paired t-test. Chi^2 or Fischer's Exact tests were used for categorical comparisons. Statistical analysis was performed using SPSS version 5.

[3] = Intracellular elemental concentrations in sublingual buccal smears (EXAtest, energy-dispersive X-ray analysis), same study; format: in vivo, human; conditions: for Intracellular magnesium concentration, Baseline: before study therapy; for Intracellular magnesium concentration, Baseline / Intracellular magnesium concentration, Post-Dosing: buccal cells, magnesium group n = 10, normal reference range 33.9-41.9, mean ± SD; for Intracellular magnesium concentration, Post-Dosing: following the third dose
Protocol: as §1, §2
Sublingual buccal smears were obtained from a subgroup of participants prior to initiation of study therapy and following the third dose of magnesium using EXAtest™ kits (Intracellular Diagnostics, Inc.; Foster City, Calif.). Samples were analyzed by energy-dispersive X-ray Analysis for intracellular concentrations of magnesium, phosphorus, chloride, calcium, potassium, and sodium. The use of buccal cell smears for intracellular magnesium was performed because it is noninvasive, reproducible, and correlates well (r=0.68, p<0.002) with atrial cell intracellular magnesium.
as §3

[4] = oral magnesium salts currently used to treat magnesium deficiencies; cited from earlier work
[5] = test system: patients with atrial fibrillation; conditions: oral, two 6-month studies; cited from earlier work
[6] = cited from earlier work
[7] = 3 hours after first dose, 504 mg elemental magnesium daily, oral, n = 14, mean ± SD
[8] = 51 hours after first dose, 504 mg elemental magnesium daily for 48 hours, oral, n = 14, mean ± SD
[9] = baseline, before first dose, magnesium group n = 14, on sotalol or dofetilide, mean ± SD

C[C@H](O)C(=O)[O-].C[C@H](O)C(=O)[O-].[Mg+2] [magnesium L-lactate]
patients who experienced loose bowel movements [1]: 2 patients
QT Interval 3 Hour [2, 7]: 115300 ± 11100 µM·h
RR Interval 3 Hour [2, 7]: 230400 ± 30860 µM·h
QTc Interval 3 Hour [2, 7]: 121100 ± 17700 µM·h
QTc Interval 3 Hour ([2]; 3 hours after first dose, 504 mg elemental magnesium daily, oral, n = 14, mean ± SD, listed as Magnesium): 121100 ± 17700 µM·h
QRS Interval 3 Hour ([2]; 3 hours after first dose, three tablets twice daily (504 mg elemental magnesium daily), oral, n = 14, mean ± SD): 39890 ± 11600 µM·h
QTc interval reduction ([2]; 3 hours post-dosing): 37 ms
QTc interval reduction from baseline ([2]; 3 hours, group receiving diuretics, mean ± SD): 51.1 ± 42 ms
QT interval reduction ([2]; 3 hours): isms
QTc interval reduction from baseline ([2]; 3 hours, no diuretic group, mean ± SD): 25.5 ± 27.9 ms
QT Interval 51 Hour [2, 8]: 115800 ± 12400 µM·h
RR Interval 51 Hour [2, 8]: 241200 ± 32670 µM·h
QTc Interval 51 Hour [2, 8]: 124800 ± 14300 µM·h
QTc Interval 51 Hour ([2]; 51 hours after first dose, 504 mg elemental magnesium daily for 48 hours, oral, n = 14, mean ± SD, listed as Magnesium): 124800 ± 14300 µM·h
QRS Interval 51 Hour ([2]; 51 hours after first dose, three tablets twice daily for 48 hours (504 mg elemental magnesium daily), oral, n = 14, mean ± SD): 36190 ± 12200 µM·h
QTc interval reduction ([2]; 51 hours): 25 ms
QTc interval reduction from baseline ([2]; 51 hours, group receiving diuretics, mean ± SD): 24.7 ± 24.3 ms
QT interval reduction ([2]; 51 hours): 14 ms
QTc interval reduction from baseline ([2]; 51 hours, no diuretic group, mean ± SD): 26.2 ± 27.4 ms
QTc Baseline [2, 9]: 131200 ± 15000 µM·h
QTc Baseline ([2]; baseline, before first dose, magnesium group n = 14, on sotalol or dofetilide, mean ± SD, listed as Magnesium): 131200 ± 15000 µM·h
QT Interval Baseline [2, 9]: 119600 ± 10600 µM·h
RR Interval Baseline [2, 9]: 235600 ± 45530 µM·h
intracellular magnesium of patients with baseline concentrations below the normal reference range, after magnesium supplementation ([3]; all such patients, normal reference range 33.9-41.9 mEq/IU): achieving a concentration within the normal reference range
Intracellular magnesium concentration, Baseline [3]: 32.6±2.2 mEq/IU
Intracellular magnesium concentration, Baseline ([3]; listed as Magnesium): 32.2 ± 2.2 mEq/IU
Intracellular magnesium concentration, Post-Dosing [3]: 36.2±2.4 mEq/IU
Intracellular magnesium concentration, Post-Dosing ([3]; listed as Magnesium): 36.2 ± 2.4 mEq/IU
effective in repleting intracellular magnesium levels to normal ranges ([3]; normal range defined as a minimum concentration of 33.9 mEq/IU): 100%

[Cl-].[Cl-].[Mg+2] [magnesium chloride]
bioavailability [4]: about 20%

[Mg+2].[OH-].[OH-] [magnesium hydroxide]
maintaining sinus rhythm [5]: ineffective at maintaining sinus rhythm

[O]=[Mg] [magnesium oxide]
bioavailability [4]: about 2%

O=S(=O)([O-])[O-].[Mg+2] [magnesium sulfate]
conversion rate ([6]; trial of intravenous magnesium sulfate versus diltiazem, p=0.03): 57%
conversion rate ([6]; trial of intravenous magnesium sulfate versus verapamil, p=0.01): 58%

magnesium gluconate
bioavailability [4]: about 20%
